Test results taken from patent EP4740948A1 (Dong Wha Pharm. Co., Ltd., priority 2023, dated 2025).

Experiments:
NCI-H1299 cells = test: Cancer cell proliferation inhibition (Cell Counting Kit-8), lung cancer cell line; assay type: cell-based; conditions: 1000 nM, cultured seven to 11 days; for inhibition at 1 µM: Homo sapiens, NCI-H1299, 264 h, read-out: % inhibition rate NCI-H129 9
Procedure: (§1) In addition, as one example of solid cancer in which an overexpression of EZH2 and a consequent disease association therebetween is reported, a proliferation inhibitory activity of the 1,3-benzodioxole derivative compounds represented by chemical formula I of the present invention was evaluated in Lovo cells as a colorectal cancer cell line, SW-13 cells as an adrenal cancer cell line, MIA-PaCa-2 cells as a pancreatic cancer cell line, and NCI-H1299 cells as a lung cancer cell line.
(§2) Each cell line (G401 cell, MKN-45 cell, Lovo cell, SW-13 cell, MIA-PaCa-2, NCI-H1299) of Table 2 below was cultured using RPMI1640, McCoy's 5a, L-15 or DMEM containing 10% fetal bovine serum, and the cells were seeded into wells of a 96-well culture dish at 100 to 1,000 cells each, and a test substance 1000 nM was cultured for seven to 11 days after drug treatment. After the culture, the cells were measured according to a manufacturer's instructions using Cell Counting Kit-8, and a cell proliferation inhibitory effect (% inhibition rate) of the test substance was obtained.
(§3) The cell proliferation inhibitory effect (% inhibition rate) of the test substance was calculated using a following equation. % inhibition rate = {1−(testgroup/controlgroup)} X 100 [formula]

G401 cells = test: Cancer cell proliferation inhibition (Cell Counting Kit-8), rhabdoid tumor cell line; assay type: cell-based; conditions: 1000 nM, cultured seven to 11 days; for inhibition at 1 µM: Homo sapiens, G-401, 264 h, read-out: % inhibition rate G401; for % inhibition rate G401: 1 µM
Excerpt: (§4) Among solid cancer cells, in G401 cells in which expression of SMARCB1, which is a member of switch/sucrosenon-fermenting (SWI/SNF), is defective as a cell line of a rhabdoid tumor in which a therapeutic effect may be expected through dual inhibition of EZH1/2, and MKN-45 cells in which expression of ARID1A, which is a member of SWI/SNF, is defective as a gastric cancer cell line, a proliferation inhibitory ability of the 1,3-benzodioxole derivative compounds represented by chemical formula I of the present invention was evaluated.
as §2, §3

EZH2 = EZH2 (Homo sapiens, UniProt Q15910); test: AlphaLISA enzyme activity inhibition, EZH2; assay type: biochemical; conditions: for inhibition at 0.005 µM: 5nM test substance; for inhibition at 0.01 µM: 10nM test substance
EZH2, sequence (Q15910 whole entry, species assumed): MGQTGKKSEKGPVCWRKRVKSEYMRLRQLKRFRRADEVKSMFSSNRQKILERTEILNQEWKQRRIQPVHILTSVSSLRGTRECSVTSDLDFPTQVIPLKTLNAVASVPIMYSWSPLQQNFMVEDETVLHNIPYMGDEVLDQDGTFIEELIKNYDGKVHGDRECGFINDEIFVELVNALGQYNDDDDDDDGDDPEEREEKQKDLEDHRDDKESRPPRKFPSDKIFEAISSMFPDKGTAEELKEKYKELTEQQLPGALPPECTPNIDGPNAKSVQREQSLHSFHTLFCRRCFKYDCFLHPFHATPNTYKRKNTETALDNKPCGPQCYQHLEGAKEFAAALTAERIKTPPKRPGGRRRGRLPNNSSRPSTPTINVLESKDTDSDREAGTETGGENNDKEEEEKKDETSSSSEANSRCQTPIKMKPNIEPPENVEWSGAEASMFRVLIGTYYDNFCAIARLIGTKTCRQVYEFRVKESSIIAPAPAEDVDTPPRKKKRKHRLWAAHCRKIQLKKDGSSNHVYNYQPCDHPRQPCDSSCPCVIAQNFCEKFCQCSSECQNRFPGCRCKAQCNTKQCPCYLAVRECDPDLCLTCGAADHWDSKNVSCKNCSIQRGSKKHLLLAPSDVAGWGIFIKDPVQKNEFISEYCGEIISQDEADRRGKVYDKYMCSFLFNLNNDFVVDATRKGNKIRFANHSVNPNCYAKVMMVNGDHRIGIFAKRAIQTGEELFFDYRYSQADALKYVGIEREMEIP
EZH2, sequence (O75530 whole entry partner, species assumed): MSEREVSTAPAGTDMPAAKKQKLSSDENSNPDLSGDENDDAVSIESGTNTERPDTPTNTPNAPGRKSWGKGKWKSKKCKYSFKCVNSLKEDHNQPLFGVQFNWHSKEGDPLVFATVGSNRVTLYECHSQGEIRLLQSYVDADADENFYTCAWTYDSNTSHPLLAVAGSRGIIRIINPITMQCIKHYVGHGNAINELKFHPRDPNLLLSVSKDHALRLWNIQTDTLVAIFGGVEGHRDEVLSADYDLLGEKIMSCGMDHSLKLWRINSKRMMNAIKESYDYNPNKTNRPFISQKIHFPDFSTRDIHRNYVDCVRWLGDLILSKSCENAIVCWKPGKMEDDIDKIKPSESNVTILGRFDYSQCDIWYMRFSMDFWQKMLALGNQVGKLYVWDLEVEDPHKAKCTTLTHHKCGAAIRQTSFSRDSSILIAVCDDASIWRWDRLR
EZH2, sequence (Q15022 whole entry partner, species assumed): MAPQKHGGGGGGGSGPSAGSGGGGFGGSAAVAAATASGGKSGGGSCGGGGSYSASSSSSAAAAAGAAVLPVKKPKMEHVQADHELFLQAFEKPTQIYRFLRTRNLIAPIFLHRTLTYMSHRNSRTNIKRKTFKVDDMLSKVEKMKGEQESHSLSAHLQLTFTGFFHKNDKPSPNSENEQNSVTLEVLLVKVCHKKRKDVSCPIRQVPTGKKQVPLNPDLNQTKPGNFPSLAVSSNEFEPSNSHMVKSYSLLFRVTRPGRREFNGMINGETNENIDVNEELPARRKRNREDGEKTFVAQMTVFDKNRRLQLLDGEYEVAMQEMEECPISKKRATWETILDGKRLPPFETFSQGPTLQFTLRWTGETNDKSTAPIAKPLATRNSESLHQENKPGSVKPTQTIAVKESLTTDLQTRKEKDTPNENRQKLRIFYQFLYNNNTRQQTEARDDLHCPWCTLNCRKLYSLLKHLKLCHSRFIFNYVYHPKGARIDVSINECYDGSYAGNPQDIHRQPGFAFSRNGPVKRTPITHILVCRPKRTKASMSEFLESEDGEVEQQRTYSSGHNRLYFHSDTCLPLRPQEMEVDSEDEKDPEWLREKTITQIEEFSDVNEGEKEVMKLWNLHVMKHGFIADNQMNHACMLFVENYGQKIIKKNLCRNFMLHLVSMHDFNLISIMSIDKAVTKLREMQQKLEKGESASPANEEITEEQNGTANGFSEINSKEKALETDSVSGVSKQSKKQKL
Procedure: (§5) In order to confirm the EZH1 and/or EZH2 activity inhibitory effect of the 1,3-benzodioxole derivative compounds represented by chemical formula I of the present invention, the activity was measured using an AlphaLISA test method. The test substance dissolved in dimethylsulfoxide (DMSO) was diluted in a test solution (20 mM Tris pH 8.0, 0.1% BSA, 0.01% Triton X-100, 0.5 mM DTT) according to a final treatment concentration (5 nM or 10 nM) and mixed with EZH1 and EZH2, respectively, and then histone H3 peptide and S-adenosylmethionine (SAM) were added to initiate an enzyme reaction. An acceptor bead was added thereto after reaction for two hours and subjected to an additional reaction for one hour, after which a donor bead was added thereto. After an additional reaction for 30 minutes, the reaction was completed. An activity was measured using the Magellan program on a Spark10M instrument. DMSO was used as a control group, an inhibition rate of enzyme activity was calculated using a following equation, and the results thereof are shown in Table 1 below. [formula]

SW-13 cells = test: Cancer cell proliferation inhibition (Cell Counting Kit-8), adrenal cancer cell line; assay type: cell-based; conditions: 1000 nM, cultured seven to 11 days; for inhibition at 1 µM: Homo sapiens, SW13, 264 h, read-out: % inhibition rate SW-13
Procedure: as §1, §2, §3

MKN-45 cells = test: Cancer cell proliferation inhibition (Cell Counting Kit-8), gastric cancer cell line; assay type: cell-based; conditions: 1000 nM, cultured seven to 11 days; for inhibition at 1 µM: Homo sapiens, MKN-45, 264 h, read-out: % inhibition rate MKN -45
Excerpt: as §4, §2, §3

EZH1 = EZH1 (Homo sapiens, UniProt Q92800); test: AlphaLISA enzyme activity inhibition, EZH1; assay type: biochemical
EZH1, sequence (Q92800 whole entry, species assumed): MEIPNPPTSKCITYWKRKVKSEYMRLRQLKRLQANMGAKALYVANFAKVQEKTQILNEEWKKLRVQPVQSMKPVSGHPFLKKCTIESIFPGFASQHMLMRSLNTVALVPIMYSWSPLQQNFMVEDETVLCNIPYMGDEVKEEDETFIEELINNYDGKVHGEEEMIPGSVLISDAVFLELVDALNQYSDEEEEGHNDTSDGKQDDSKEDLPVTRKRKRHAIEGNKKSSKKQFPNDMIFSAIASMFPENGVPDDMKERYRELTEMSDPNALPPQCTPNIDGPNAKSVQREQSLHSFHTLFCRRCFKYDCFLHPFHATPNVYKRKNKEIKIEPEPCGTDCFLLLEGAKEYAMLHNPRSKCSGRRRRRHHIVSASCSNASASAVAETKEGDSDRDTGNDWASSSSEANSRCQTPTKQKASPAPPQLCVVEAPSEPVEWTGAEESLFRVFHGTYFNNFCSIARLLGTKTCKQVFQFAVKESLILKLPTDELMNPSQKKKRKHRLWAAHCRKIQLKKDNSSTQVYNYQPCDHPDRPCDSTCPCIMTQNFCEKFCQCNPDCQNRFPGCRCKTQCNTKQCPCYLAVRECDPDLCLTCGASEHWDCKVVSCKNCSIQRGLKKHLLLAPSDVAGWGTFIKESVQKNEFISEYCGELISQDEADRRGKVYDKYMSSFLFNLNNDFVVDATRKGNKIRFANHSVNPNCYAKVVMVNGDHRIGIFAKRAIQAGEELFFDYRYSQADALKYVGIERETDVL
EZH1, sequence (O75530 whole entry partner, species assumed): as the sequence (O75530 whole entry partner, species assumed) above
EZH1, sequence (Q15022 whole entry partner, species assumed): as the sequence (Q15022 whole entry partner, species assumed) above
Procedure: as §5

Lovo cells = test: Cancer cell proliferation inhibition (Cell Counting Kit-8), colorectal cancer cell line; assay type: cell-based; conditions: 1000 nM, cultured seven to 11 days; for inhibition at 1 µM: Homo sapiens, LoVo, 264 h, read-out: % inhibition rate LoVo
Procedure: as §1, §2, §3

MIA-PaCa-2 cells = test: Cancer cell proliferation inhibition (Cell Counting Kit-8), pancreatic cancer cell line; assay type: cell-based; conditions: 1000 nM, cultured seven to 11 days; for inhibition at 1 µM: Homo sapiens, MIA PaCa-2, 264 h, read-out: % inhibition rate MIA-Paca2
Procedure: as §1, §2, §3

Compound	inhibition at 1 µM (NCI-H1299 cells)	inhibition at 1 µM (G401 cells)	inhibition at 0.005 µM (EZH2)	inhibition at 1 µM (SW-13 cells)	inhibition at 1 µM (MKN-45 cells)	inhibition at 0.005 µM (EZH1; 5nM test substance)	inhibition at 1 µM (Lovo cells)	inhibition at 1 µM (MIA-PaCa-2 cells)	% inhibition rate G401 (G401 cells)	% inhibition rate NCI-H129 9 (NCI-H1299 cells; 1 µM)	% inhibition rate MIA-Paca2 (MIA-PaCa-2 cells)	% inhibition rate LoVo (Lovo cells; 1 µM)	also measured
CSc1cc(C)[nH]c(=O)c1CNC(=O)c1cc(-c2cnc(N3CCCCC3)nc2)c2c(c1C)OC(C)([C@H]1CC[C@H](N(C)CC(F)(F)F)CC1)O2 (relative stereo) [Compound 21, 2,4-dimethyl-2-(trans-4-(methyl(2,2,2-trifluoroethyl)amino)cyclohexyl)-N-((6-methyl-4-(methylthio)-2-oxo-1,2-dihydropyridin-3-yl)methyl)-7-(2-(piperidin-1-yl)pyrimidin-5-yl)benzo[d][1,3]dioxole-5-carboxamide]	≤ 30%	≤ 30%	11.3%	≤ 30%	≤ 30%	20.6%	≥ 70%	≤ 30%	–	–	–	–	–
CSc1cc(C)[nH]c(=O)c1CNC(=O)c1cc(-c2ccc3occc3c2)c2c(c1C)OC(C)(C1CCN(CC(F)F)CC1)O2 (stereo not shown) [Compound 97, 7-(benzofuran-5-yl)-2-(1-(2,2-difluoroethyl)piperidin-4-yl)-2,4-dimethyl-N-((6-methyl-4-(methylthio)-2-oxo-1,2-dihydropyridin-3-yl)methyl)benzo[d][1,3]dioxole-5-carboxamide]	≤ 30%	30 to 70%	74.7%	≤ 30%	30 to 70%	25.9%	≥ 70%	≤ 30%	–	–	–	–	inhibition at 0.01 µM (EZH2): 82.3%; inhibition at 0.01 µM (EZH1; 10nM test substance): 20.5%
CCN(C)c1ccc(-c2cc(C(=O)NCc3c(SC)cc(C)[nH]c3=O)c(C)c3c2OC(C)(C2CCN(CC(F)(F)F)CC2)O3)cn1 (single isomer, unassigned) [Compound 79, 7-(2-(ethyl(methyl)amino)pyridin-5-yl)-2,4-dimethyl-N-((6-methyl-4-(methylthio)-2-oxo-1,2-dihydropyridin-3-yl)methyl)-2-(1-(2,2,2-trifluoroethyl)piperidin-4-yl)benzo[d][1,3]dioxole-5-carboxamide]	30 to 70%	–	97.1%	30 to 70%	30 to 70%	–	≥ 70%	≤ 30%	+++ (+++: ≥70%)	–	–	–	inhibition at 0.01 µM (EZH2): 99.5%; Enzyme inhibition % EZH1 (EZH1; 5nM test substance, 0.005 µM): 71.9%; Enzyme inhibition % EZH1 (EZH1; 10nM test substance, 0.01 µM): 87.4%
CSc1cc(C)[nH]c(=O)c1CNC(=O)c1cc(-c2cnc(N3C[C@@H](C)O[C@@H](C)C3)nc2)c2c(c1C)OC(C)([C@H]1CC[C@H](N(C)C)CC1)O2 (stereo partly shown) [Compound 2]	≤ 30%	30 to 70%	92.9%	30 to 70%	≤ 30%	82%	30 to 70%	≤ 30%	–	–	–	–	–
CSc1cc(C)[nH]c(=O)c1CNC(=O)c1cc(-c2cnc(N3CCC4(CC3)COC4)nc2)c2c(c1C)OC(C)([C@H]1CC[C@H](N(C)C)CC1)O2 (relative stereo) [Compound 15, 7-(2-(2-oxa-7-azaspiro[3.5]nonan-7-yl)pyrimidin-5-yl)-2-(trans-4-(dimethylamino)cyclohexyl)-2,4-dimethyl-N-((6-methyl-4-(methylthio)-2-oxo-1,2-dihydropyridin-3-yl)methyl)benzo[d][1,3]dioxole-5-carboxamide]	≤ 30%	30 to 70%	99.8%	30 to 70%	30 to 70%	94.5%	≥ 70%	≤ 30%	–	–	–	–	–
COCCN(C)[C@H]1CC[C@H](C2(C)Oc3c(-c4ccc(N5C[C@@H](C)O[C@@H](C)C5)nc4)cc(C(=O)NCc4c(SC)cc(C)[nH]c4=O)c(C)c3O2)CC1 (stereo partly drawn) [Compound 24, 7-(6-((2S,6R)-2,6-dimethylmorpholino)pyridin-3-yl)-2-(trans-4-((2-methoxyethyl)(methyl)amino)cyclohexyl)-2,4-dimethyl-N-((6-methyl-4-(methylthio)-2-oxo-1,2-dihydropyridin-3-yl)methyl)benzo[d][1,3]dioxole-5-carboxamide]	≤ 30%	30 to 70%	98.6%	30 to 70%	≤ 30%	35.1%	≥ 70%	≤ 30%	–	–	–	–	–
CCN(C)c1ccc(-c2cc(C(=O)NCc3c(SC)cc(C)[nH]c3=O)c(C)c3c2OC(C)(C2CCN(CC(F)(F)F)CC2)O3)cn1 (single isomer, unassigned) [Compound 87, 7-(6-(ethyl(methyl)amino)pyridin-3-yl)-2,4-dimethyl-N-((6-methyl-4-(methylthio)-2-oxo-1,2-dihydropyridin-3-yl)methyl)-2-(1-(2,2,2-trifluoroethyl)piperidin-4-yl)benzo[d][1,3]dioxole-5-carboxamide]	–	–	–	–	–	–	–	–	+ (+: ≤30%)	+ (+: ≤30%)	+ (+: ≤30%)	–	% inhibition rate SW-13 (SW-13 cells; 1 µM): + (+: ≤30%); % inhibition rate MKN -45 (MKN-45 cells; 1 µM): + (+: ≤30%); % inhibition rate LoVo (Lovo cells): +++ (+++: ≥70%)
CSc1cc(C)[nH]c(=O)c1CNC(=O)c1cc(-c2ccc(N3CCOCC3)nc2)c2c(c1C)OC(C)(C1CCN(CC(F)(F)F)CC1)O2 (single isomer, unassigned) [Compound 63, 2,4-dimethyl-N-((6-methyl-4-(methylthio)-2-oxo-1,2-dihydropyridin-3-yl)methyl)-7-(6-morpholinopyridin-3-yl)-2-(1-(2,2,2-trifluoro)piperidin-4-yl)benzo[d][1,3]dioxole-5-carboxamide]	–	–	–	–	–	–	–	–	+ (+: ≤30%)	+ (+: ≤30%)	+ (+: ≤30%)	++ (++: more than 30% and less than 70%)	% inhibition rate SW-13 (SW-13 cells; 1 µM): + (+: ≤30%); % inhibition rate MKN -45 (MKN-45 cells): ++ (++: more than 30% and less than 70%)
CSc1cc(C)[nH]c(=O)c1CNC(=O)c1cc(-c2ccc(N3C[C@@H](C)O[C@@H](C)C3)nc2)c2c(c1C)OC(C)(C1CCN(C3CCCCC3)CC1)O2 (single isomer, unassigned) [Compound 54]	–	–	–	–	–	–	–	–	++ (++: more than 30% and less than 70%)	+ (+: ≤30%)	+ (+: ≤30%)	++ (++: more than 30% and less than 70%)	% inhibition rate SW-13 (SW-13 cells): ++ (++: more than 30% and less than 70%); % inhibition rate MKN -45 (MKN-45 cells): + (+: ≤30%)
CCN1CCC(C2(C)Oc3c(-c4ccc(N5CCOCC5)nc4)cc(C(=O)NCc4c(SC)cc(C)[nH]c4=O)c(C)c3O2)CC1 (single isomer, unassigned) [Compound 67, 2-(1-ethylpiperidin-4-yl)-2,4-dimethyl-N-((6-methyl-4-(methylthio)-2-oxo-1,2-dihydropyridin-3-yl)methyl)-7-(6-morpholinopyridin-3-yl)benzo[d][1,3]dioxole-5-carboxamide]	–	–	–	–	–	–	–	–	+ (+: ≤30%)	–	+ (+: ≤30%)	+ (+: ≤30%)	% inhibition rate NCI-H129 9 (NCI-H1299 cells): + (+: ≤30%); % inhibition rate SW-13 (SW-13 cells): + (+: ≤30%); % inhibition rate MKN -45 (MKN-45 cells; 1 µM): + (+: ≤30%)
